Test results reported in EPA's CvTdb concentration-time database (doi:10.1093/toxsci/kfy020).

Test system: rat
Assay: concentration in plasma after dosing
Conditions: dosed: Ondansetron, male, Sprague-Dawley

Which results are given for `Cc1nccn1CC1CCc2c(c3ccccc3n2C)C1=O` (stereo not given) [Ondansetron]?
concentration in plasma (1 min, 1.0000000000 mg/kg, iv): 16200 ng/mL; concentration in plasma (1 min, 4.0000000000 mg/kg, iv): 37100 ng/mL; concentration in plasma (1 min, 8.0000000000 mg/kg, iv): 104000 ng/mL; concentration in plasma (1 min, 20.0000000000 mg/kg, iv): 175000 ng/mL; concentration in plasma (0.05 h, 1.0000000000 mg/kg, iv): 781 ng/mL; concentration in plasma (0.05 h, 4.0000000000 mg/kg, iv): 3050 ng/mL; concentration in plasma (0.05 h, 4.0000000000 mg/kg, oral): 70 ng/mL; concentration in plasma (0.05 h, 8.0000000000 mg/kg, iv): 6280 ng/mL; concentration in plasma (0.05 h, 8.0000000000 mg/kg, oral): 100 ng/mL; concentration in plasma (0.05 h, 20.0000000000 mg/kg, iv): 17600 ng/mL; concentration in plasma (0.05 h, 20.0000000000 mg/kg, oral): 491 ng/mL; concentration in plasma (5 min, 4.0000000000 mg/kg, oral): 244 ng/mL; concentration in plasma (5 min, 8.0000000000 mg/kg, oral): 249 ng/mL; concentration in plasma (5 min, 20.0000000000 mg/kg, oral): 1110 ng/mL; concentration in plasma (7 min, 1.0000000000 mg/kg, iv): 420 ng/mL; concentration in plasma (7 min, 4.0000000000 mg/kg, iv): 1480 ng/mL; concentration in plasma (7 min, 8.0000000000 mg/kg, iv): 3240 ng/mL; concentration in plasma (7 min, 20.0000000000 mg/kg, iv): 10100 ng/mL; concentration in plasma (10 min, 4.0000000000 mg/kg, oral): 171 ng/mL; concentration in plasma (10 min, 8.0000000000 mg/kg, oral): 298 ng/mL; concentration in plasma (10 min, 20.0000000000 mg/kg, oral): 808 ng/mL; concentration in plasma (0.25 h, 1.0000000000 mg/kg, iv): 231 ng/mL; concentration in plasma (0.25 h, 4.0000000000 mg/kg, iv): 830 ng/mL; concentration in plasma (0.25 h, 8.0000000000 mg/kg, iv): 1860 ng/mL; concentration in plasma (0.25 h, 20.0000000000 mg/kg, iv): 5550 ng/mL; concentration in plasma (20 min, 4.0000000000 mg/kg, oral): 83.7 ng/mL; concentration in plasma (20 min, 8.0000000000 mg/kg, oral): 138 ng/mL; concentration in plasma (20 min, 20.0000000000 mg/kg, oral): 441 ng/mL; concentration in plasma (0.5 h, 1.0000000000 mg/kg, iv): 129 ng/mL; concentration in plasma (0.5 h, 4.0000000000 mg/kg, iv): 429 ng/mL; concentration in plasma (0.5 h, 4.0000000000 mg/kg, oral): 49.1 ng/mL; concentration in plasma (0.5 h, 8.0000000000 mg/kg, iv): 960 ng/mL; concentration in plasma (0.5 h, 8.0000000000 mg/kg, oral): 92 ng/mL; concentration in plasma (0.5 h, 20.0000000000 mg/kg, iv): 2930 ng/mL; concentration in plasma (0.5 h, 20.0000000000 mg/kg, oral): 288 ng/mL; concentration in plasma (40 min, 4.0000000000 mg/kg, oral): 39.6 ng/mL; concentration in plasma (40 min, 8.0000000000 mg/kg, oral): 70 ng/mL; concentration in plasma (40 min, 20.0000000000 mg/kg, oral): 255 ng/mL; concentration in plasma (0.75 h, 1.0000000000 mg/kg, iv): 72.6 ng/mL; concentration in plasma (0.75 h, 4.0000000000 mg/kg, iv): 256 ng/mL; concentration in plasma (0.75 h, 8.0000000000 mg/kg, iv): 597 ng/mL; concentration in plasma (0.75 h, 20.0000000000 mg/kg, iv): 1860 ng/mL; concentration in plasma (50 min, 4.0000000000 mg/kg, oral): 30.2 ng/mL; concentration in plasma (50 min, 8.0000000000 mg/kg, oral): 57.9 ng/mL; concentration in plasma (50 min, 20.0000000000 mg/kg, oral): 197 ng/mL; concentration in plasma (1 h, 1.0000000000 mg/kg, iv): 47.1 ng/mL; concentration in plasma (1 h, 4.0000000000 mg/kg, iv): 176 ng/mL; concentration in plasma (1 h, 4.0000000000 mg/kg, oral): 23.5 ng/mL; concentration in plasma (1 h, 8.0000000000 mg/kg, iv): 379 ng/mL; concentration in plasma (1 h, 8.0000000000 mg/kg, oral): 40.6 ng/mL; concentration in plasma (1 h, 20.0000000000 mg/kg, iv): 1260 ng/mL; concentration in plasma (1 h, 20.0000000000 mg/kg, oral): 165 ng/mL; concentration in plasma (1.25 h, 1.0000000000 mg/kg, iv): 31.1 ng/mL; concentration in plasma (1.25 h, 4.0000000000 mg/kg, iv): 112 ng/mL; concentration in plasma (1.25 h, 8.0000000000 mg/kg, iv): 246 ng/mL; concentration in plasma (1.25 h, 20.0000000000 mg/kg, iv): 813 ng/mL; concentration in plasma (1.5 h, 4.0000000000 mg/kg, iv): 75.7 ng/mL; concentration in plasma (1.5 h, 8.0000000000 mg/kg, iv): 176 ng/mL; concentration in plasma (1.5 h, 8.0000000000 mg/kg, oral): 21.4 ng/mL; concentration in plasma (1.5 h, 20.0000000000 mg/kg, iv): 561 ng/mL; concentration in plasma (1.5 h, 20.0000000000 mg/kg, oral): 82.7 ng/mL; concentration in plasma (2 h, 4.0000000000 mg/kg, iv): 38.3 ng/mL; concentration in plasma (2 h, 8.0000000000 mg/kg, iv): 87.4 ng/mL; concentration in plasma (2 h, 20.0000000000 mg/kg, iv): 308 ng/mL; concentration in plasma (2 h, 20.0000000000 mg/kg, oral): 46.8 ng/mL; concentration in plasma (2.5 h, 8.0000000000 mg/kg, iv): 44.2 ng/mL; concentration in plasma (2.5 h, 20.0000000000 mg/kg, iv): 184 ng/mL; concentration in plasma (3 h, 8.0000000000 mg/kg, iv): 23.3 ng/mL; concentration in plasma (3 h, 20.0000000000 mg/kg, iv): 101 ng/mL; concentration in plasma (4 h, 20.0000000000 mg/kg, iv): 39.1 ng/mL
